# Measured values published in patent US12428433B2, “Fluorine-containing heterocyclic derivatives with macrocyclic structure and use thereof” (ScinnoHub Pharmaceutical Co., Ltd, priority 2019, dated 2025).
# Experiments:
# [1] = Stability test in liver microsomes, mouse; assay type: in vitro ADME; conditions: for half-life at 1 μM: 0.5 mg/mL
# Experimental: A stability of the compound of the present application in liver microsomes of human, rat and mouse was measured.
# 3.1 A buffer and a liver microsome were prepared into an incubation solution according to the following table:
# 3.2 The following two experiments were carried out respectively: a) incubation system added with coenzyme factor NADPH: 25 μL of NADPH (10 mM) was added into an incubation solution (mainly comprising a liver microsome and a phosphate buffer), so that final concentrations of the liver microsome and the NADPH were 0.5 mg/mL and […] respectively; and b) incubation system without coenzyme factor NADPH: 25 μL of phosphate buffer (100 mM) was added into the incubation solution, so that the final concentration of the liver microsome was 0.5 mg/mL. The incubation systems above were preheated at 37° C. for 10 minutes respectively.
# 3.3 2.5 μL of positive control compound or a tested compound solution (100 μM) was added into the incubation systems described in “step 3.2” above respectively for reaction, and the positive control compound was verapamil (purchased from Sigma), so that a final concentration of the tested compound of the present application or the positive control compound was 1 μM. The incubation solution added with the compound was incubated in water at 37° C. in batches.
# 3.4 30 μL of aliquot was taken from a reaction solution after 0.5 minute, 5 minutes, 15 minutes, 30 minutes and 45 minutes respectively, and the reaction was terminated by adding 5 times volume of cold acetonitrile containing 200 nM caffeine and 100 nM tolbutamide. The aliquot was centrifuged at a gravity acceleration of 3,220 g for 40 minutes, and 100 μL of supernatant was mixed with 100 μL of ultrapure water, and then used for LC-MS/MS analysis.
# A peak area was determined by an extracted ion chromatogram. A slope value k was determined by linear regression of a remaining percentage of a parent drug relative to […] an incubation time curve.
# In-vitro half-life periods (t1/2) were respectively calculated and determined according to the slope value, and an average value of the in-vitro half-life periods was converted into an in-vitro intrinsic clearance rate (CLint, represented by μL/min/mg protein).
# [2] = target: TRKa (Homo sapiens (Human), UniProt P04629); assay: Kinase inhibitory activity (Caliper mobility shift), TRKa; assay type: biochemical
# Sequence of TRKa (P04629 33-796): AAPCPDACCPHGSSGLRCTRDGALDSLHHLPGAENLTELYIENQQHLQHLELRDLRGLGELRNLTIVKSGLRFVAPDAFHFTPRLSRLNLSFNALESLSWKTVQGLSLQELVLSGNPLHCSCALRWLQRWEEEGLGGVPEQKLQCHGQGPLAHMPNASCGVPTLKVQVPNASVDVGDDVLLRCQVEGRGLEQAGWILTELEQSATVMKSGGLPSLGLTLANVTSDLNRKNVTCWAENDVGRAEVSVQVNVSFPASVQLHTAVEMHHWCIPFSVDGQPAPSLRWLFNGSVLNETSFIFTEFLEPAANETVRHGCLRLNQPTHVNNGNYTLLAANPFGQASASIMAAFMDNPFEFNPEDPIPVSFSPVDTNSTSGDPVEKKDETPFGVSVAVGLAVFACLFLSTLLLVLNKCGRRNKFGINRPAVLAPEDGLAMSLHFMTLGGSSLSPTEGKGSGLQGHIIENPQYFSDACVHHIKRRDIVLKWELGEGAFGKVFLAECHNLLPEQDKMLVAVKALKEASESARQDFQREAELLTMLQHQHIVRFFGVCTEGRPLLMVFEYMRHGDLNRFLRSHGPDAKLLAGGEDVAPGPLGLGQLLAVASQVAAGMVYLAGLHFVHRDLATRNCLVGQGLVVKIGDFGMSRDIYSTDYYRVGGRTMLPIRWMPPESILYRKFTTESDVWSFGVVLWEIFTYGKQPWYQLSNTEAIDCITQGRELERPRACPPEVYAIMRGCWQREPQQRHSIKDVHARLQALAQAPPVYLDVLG
# Experimental: […] (Shanghai) Co., Ltd. was commissioned to complete the testing example. […] 3.1 A tested compound was accurately weighed and dissolved in 100% DMSO to prepare into a 10 mM solution. […] 3.2.3 A kinase solution of 2.5 times final concentration was prepared with 1×kinase buffer. […] 3.2.5 The reaction plate was shaken and mixed evenly, and then incubated at room temperature for 10 minutes. 3.2.6 Mixed solutions of ATP and kinase substrate 22 of 5 times and 3 times final concentrations were prepared with 1×kinase buffer. 3.2.7 15 μL of mixed solution of ATP and substrate of 5 times or 3 times final concentration was added. 3.2.8 The 384-well plate was centrifuged at 1,000 rpm for 30 seconds, shaken and mixed evenly, and then incubated at room temperature for corresponding time. 3.2.9 The kinase reaction was terminated. 3.2.10 A conversion rate was read by the microplate reader Caliper EZ Reader. Calculation Formula Inhibition rate %=(conversion rate % maximum-conversion rate % sample)/(conversion rate % maximum-conversion rate % minimum)×100 wherein the conversion rate % sample was: a reading number of a conversion rate of a sample; the conversion rate % minimum was: an average value of the negative control well, which represented a reading number of a conversion rate without an enzyme activity well; and the conversion rate % maximum was: an average value of a ratio of the positive control well, which represented a reading number of a conversion rate without a compound inhibition well.
# [3] = system: Ba/F3-LMNA-NTRK1; assay: In-vitro cell viability (CellTiter-Glo), BaF3 cell lines; assay type: cell-based; conditions: Mus musculus, 72 hours
# Experimental: (§1) Hefei Precedo Biomedical Technology Co., Ltd. was commissioned to complete the testing example, and the cell lines used were constructed by this company.
# (§2) In-vitro anti-proliferative effects of the compound of the present application on 6 BaF3 cell lines were measured.
# (§3) 6 Ba/F3 cell lines were cultured with RPMI 1640 (Biological Industries, Israel)+10% fetal calf serum (Biological Industries, Israel)+1% double antibiotics (Penicillin Streptomycin solution, Coring, USA), and cells were cultured for two generations after resuscitation, to be tested.
# (§4) The to-be-tested compound was prepared into 10 mM mother solution with DMSO, and then diluted to 1 mM with DMSO. The solution was diluted by 3 times to prepare into 1.0000 mM, 0.3333 mM, 0.1111 mM, 0.03704 mM, 0.01235 mM, 0.00412 mM, 0.00137 mM, 0.00046 mM, 0.00015 mM, and […], and stored in a 96-well drug plate (Beaver, Suzhou), with 10 concentration gradients in total. Meanwhile, an equal volume of DMSO solvent was used as a negative control.
# (§5) The prepared 1,000× compounds of 10 concentration gradients were respectively diluted by 50 times into 20× compounds with complete medium, and stored in a 96-well drug plate (Beaver, Suzhou), with 10 concentration gradients in total. Meanwhile, an equal volume of DMSO solvent was used as a negative control.
# (§6) Cell suspension in logarithmic growth phase was inoculated on a 96-well white cell culture plate (Corning 3917, NY, USA), and a volume of each well was 95 μl (about 2000 cells/well).
# (§7) 5 μl of 20× to-be-tested compounds were respectively added into the culture plate containing 95 μl of cell suspension above, and mixed evenly, with 2 wells for each concentration gradient. Final concentrations of the to-be-tested compounds were 1.0000 μM, 0.3333 μM, 0.1111 μM, 0.03704 μM, 0.01235 μM, 0.00412 μM, 0.00137 μM, 0.00046 μM, 0.00015 μM, and […] respectively.
# (§8) Incubation was carried out in an incubator at 37° C. under 5% CO2 for 72 hours.
# (§9) The following steps were carried out according to the instruction of Promega CellTiter-Glo Luminescence Cell Viability Assay Kit (Promega-G7573).
# (§10) A corresponding […] value RLU of each well was obtained through reading by SpectraMax Paradigm. Cell viability data was processed by the following formula:
# (§11) Cell viability(%)=(RLUDrug−RLUMin)/(RLUMax−RLUMin)*100%. Cell viabilities of compounds of different concentrations were calculated in EXCEL, then cell viability curves were made by GraphPad Prism software, and related parameters were calculated. The parameters comprised a maximum cell viability, a minimum cell viability, and an IC50 value.
# [4] = system: Ba/F3-LMNA-NTRK1-F589L; assay: as above; assay type: cell-based; conditions: Mus musculus, 72 hours
# Experimental: as §1, §2, §3, §4, §5, §6, §7, §8, §9, §10, §11
# [5] = system: Ba/F3-TEL-NTRK2; assay: as above; assay type: cell-based; conditions: Mus musculus, 72 hours
# Experimental: as §1, §2, §3, §4, §5, §6, §7, §8, §9, §10, §11
# [6] = system: Ba/F3-TEL-NTRK3; assay: as above; assay type: cell-based; conditions: Mus musculus, 72 hours
# Experimental: as §1, §2, §3, §4, §5, §6, §7, §8, §9, §10, §11
# [7] = system: Ba/F3-LMNA-NTRK1-V573I; assay: as above; assay type: cell-based; conditions: Mus musculus, 72 hours
# Experimental: as §1, §2, §3, §4, §5, §6, §7, §8, §9, §10, §11
# [8] = system: Ba/F3-LMNA-NTRK1-G667S; assay: as above; assay type: cell-based; conditions: Mus musculus, 72 hours
# Experimental: as §1, §2, §3, §4, §5, §6, §7, §8, §9, §10, §11
microsomal CLint at 1 μM [1] [µL/min/mg],half-life at 1 μM [1] [min],% Remaining(45 min) [1] [%],IC50 [2] [nM],IC50 [3] [nM],IC50 [4] [nM],IC50 [5] [nM],IC50 [6] [nM],IC50 [7] [nM],IC50 [8] [nM],SMILES
78.6,17.6,16.90,0.39,0.5,6.6,0.9,0.9,0.2,2.7,"O=C1N[C@H]2C[C@H](C2)Oc2ncc(F)cc2[C@H]2CCCN2c2ccn3ncc1c3n2 (stereo in doubt) [Positive control 1, reference compound]"
32.1,43.2,39.49,0.36,1.6,1.2,3.4,5,1.1,8.4,"C[C@H]1Nc2nc3c(cnn3cc2F)C(=O)N[C@H]2C[C@H](C2)Oc2ncc(F)cc21 [Example 3, (3^1S,3^3S,6^3E,6^4E,8R)-1^5,6^6-difluoro-8-methyl-2-oxo-4,7-diaza-6(3,5)-pyrazolo[1,5-a]pyrimidine-1(2,3)-pyridine-3(1,3)-cyclobutylcyclooctane-5-one]"
73.2,18.9,11.64,0.43,4.1,4.5,7.3,9.8,2.3,19.9,"C[C@H]1Nc2ccn3ncc(c3n2)C(=O)N[C@H]2C[C@H](C2)Oc2ncc(F)cc21 [Positive control 2, reference compound]"

SMILES,microsomal CLint at 1 μM [1] [µL/min/mg],half-life at 1 μM [1] [min],% Remaining(45 min) [1] [%],IC50 [2] [nM],IC50 [3] [nM],IC50 [4] [nM],IC50 [5] [nM],IC50 [6] [nM],IC50 [7] [nM],IC50 [8] [nM]
"O=C1N[C@H]2C[C@H](C2)Oc2ncc(F)cc2[C@H]2CCCN2c2nc3c1cnn3cc2F [Example 2, ((1^3E,1^4E,2^2R,5^1S,5^3S)-1^6,3^5-difluoro-4-oxa-6-aza-1(5,3)-pyrazolo[1,5-a]pyrimidine-3(3,2)-pyridine-2(1,2)-pyrrolidine-5(1,3)-cyclobutancycloheptan-7-one]",106,13,9.22,–,0.7,2.4,1.6,1.7,0.3,3.4
